This is an account of results in US7601713B2, “Kinase inhibitors and their uses” (Rigel Pharmaceuticals, Inc., priority 2005, dated 2009).

Test [1] deals with JAK kinases (JAK1 and JAK3). As to the kind of experiment: JAK inhibition: IL-4-stimulated CD23 upregulation in human Ramos B-cells, FACS. Type of test: cell-based. Conditions: IL-4 stimulated Ramos B-cells, read-out: IC50, inhibition of JAK kinases in cellular assay. As to the method:
JAK inhibition was tested in human Ramos B-cells activated with IL-4. Twenty to 24 hours post stimulation, the cells are stained for upregulation of CD23 and analyzed by FACS. Stimulation of the B-cells with IL-4 leads to the activation of the JAK/STAT pathway through phosphorylation of the JAK kinase JAK1 and JAK3, which in turn phosphorylate and activate transcription of factor […].
For the assay, human Ramos B-cells (ATCC, Catalog No. CRL-1596) are cultured in RPMI 1640 medium (Cellgro, Catalog No. 10-040-CM) containing 10% fetal bovine serum (JRH, Catalog No. 12106-500M) according to the propagation protocol supplied with the cells, and maintained at a density of approximately 3.5×10^5 cells/ml. The day before the assay, the cells are diluted to 3.5×10^5 cells/ml to insure they are in the logarithmic growth phase. The cells are spun down, and suspended in RPMI 1640 medium containing 5% fetal bovine serum to a density of 3.5×10^4 cells/ml and aliquots dispensed into a 96-well tissue culture plate. Cells are incubated with test compound (dissolved in DMSO) or DMSO (control) for 1 hr at 37° C. and then stimulated with IL-4 (Pepotech, Catalog No. 200-04) for 20-24 hours (final concentration is 50 Units/ml). Cells are then spun down, stained with anti-CD23-PE antibody (BD Pharmigen, Catalog No. 555711) and analyzed by FACS.

Test [2] deals with T1, Axl kinase (Homo sapiens, UniProt P30530).
T1 construct: endogenous in cells; host or cells: HeLa cells
T1 sequence (P30530 26-894): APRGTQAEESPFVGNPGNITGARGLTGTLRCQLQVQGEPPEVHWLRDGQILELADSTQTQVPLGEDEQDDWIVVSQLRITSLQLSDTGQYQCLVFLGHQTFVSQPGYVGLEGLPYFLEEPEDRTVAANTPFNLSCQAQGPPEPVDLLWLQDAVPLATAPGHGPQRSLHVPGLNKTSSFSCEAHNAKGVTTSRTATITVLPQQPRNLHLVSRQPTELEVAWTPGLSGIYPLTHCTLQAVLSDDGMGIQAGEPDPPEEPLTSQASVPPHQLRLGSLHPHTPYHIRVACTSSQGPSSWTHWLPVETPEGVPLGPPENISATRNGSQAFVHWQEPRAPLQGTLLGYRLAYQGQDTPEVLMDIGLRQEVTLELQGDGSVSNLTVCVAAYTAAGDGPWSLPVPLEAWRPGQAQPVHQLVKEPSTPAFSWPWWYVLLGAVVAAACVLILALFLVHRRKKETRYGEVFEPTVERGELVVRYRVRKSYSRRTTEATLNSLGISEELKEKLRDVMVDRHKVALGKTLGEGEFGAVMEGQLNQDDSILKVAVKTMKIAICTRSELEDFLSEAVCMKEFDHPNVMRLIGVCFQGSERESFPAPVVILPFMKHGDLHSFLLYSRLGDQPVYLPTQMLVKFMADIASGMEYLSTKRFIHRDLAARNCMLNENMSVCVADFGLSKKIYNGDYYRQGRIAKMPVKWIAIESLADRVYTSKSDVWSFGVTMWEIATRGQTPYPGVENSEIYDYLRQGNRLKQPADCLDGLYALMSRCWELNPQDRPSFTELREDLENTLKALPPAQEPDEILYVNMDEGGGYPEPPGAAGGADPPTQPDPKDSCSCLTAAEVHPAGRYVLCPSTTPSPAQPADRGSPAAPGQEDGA
As to the kind of experiment: Phospho-Akt in-cell Western assay (Axl antibody cross-linking, Hela cells). Conditions: phospho-Akt readout, read-out: IC50, inhibition of Axl kinase. Type of test: cell-based. As to the method: The compounds of the invention were tested in the following assay for their ability to inhibit Axl activity.
Phospho-Akt in-Cell Western Assay
Starvation medium: For Axl stimulation: 0.5% FCS (fetal calf serum) in DMEM, plus Axl/Fc (extracellular domain of AXL fused to immunoglobulin Fc region) (R&D, 154-AL) 500 ng/mL.
Axl antibody cross-linking: • 1st: Mouse anti-Axl (R&D, MAB 154). • 2nd: Biotin-SP-conjugated AffiniPure goat anti-mouse IgG (H+L) (Jackson ImmunoResearch #115-065-003).
Primary antibody: Rabbit anti-human Phospho-Akt antibody (Cell Signaling 9271): 1×250 diluted in blocking buffer.
Secondary antibody: HRP (horse radish peroxidase)-conjugated Goat anti-Rabbit secondary, stock solution: Jackson lmmunoResearch (Goat anti-Rabbit HRP, #111-035-144) 1:1 diluted in glycerol, store at −20° C. The working solution: 1×2000 dilution of stock in blocking buffer.
A 96 well TC (tissue culture treated) plate was coated with 10 μg/mL poly-L-Lysine at 37° C. for 30 min, washed twice with PBS, and air-dried for 5 minutes before cells were added. Hela cells were seeded at 10,000 cells/well and the cells were starved in 100 μL starvation medium containing Axl/Fc for 24 hrs.
The cells were pre-treated with test compounds by adding 100 μL of 2× test compound to the starvation medium on the cells. The cells were incubated at 37° C. for 1 hr before stimulation.
The cells were stimulated by Axl-antibody cross-linking as follows: A 5× 1st/2nd Axl antibody mixture was made (37.5 μg/mL 1st/100 μg/mL 2nd) in starvation medium and nutated at 4° C. with thorough mixing for 1-2 hours for clustering. The resulting mix was warmed to 37° C. 50 μL of 5× Axl 1st/2nd of antibody cluster was added to the cells and the cells were incubated at 37° C. for 5 min.
After 5 minutes stimulation, the plate was flicked to remove medium and the plate was tapped onto paper towels. Formaldehyde (4.0% in PBS, 100 μL) was added to fix the cells and the cells were incubated at ambient temperature for 20 min without shaking.
The cells were washed with a plate washer buffer to remove the formaldehyde solution. The plate was flicked to remove excess wash buffer and tapped onto paper towels. Quenching buffer (100 μL) was added to each well and the cells were incubated at ambient temperature for 20 minutes without shaking.
The cells were washed with a plate washer buffer to remove the quenching buffer. Blocking buffer (100 μL) was added and the cells were incubated at ambient temperature for at least an hour with gentle shaking.
The cells were washed with a plate washer buffer and diluted primary antibody (50 μL) was added to each well (blocking buffer was added to the negative control wells instead). The plates were incubated overnight at 4° C. with gentle shaking.
The wash buffer was removed, diluted secondary antibody (100 μL) was added, and the cells were incubated at ambient temperature for 1 hour with gentle shaking. During the incubation, the chemiluminescent reagent was brought to ambient temperature.
The secondary antibody was removed by washing the cells 1× with wash buffer, 1× with PBS by plate washer. The PBS was removed from the plate and the chemiluminescent reagent (80 μL: 40 μL A and 40 μL B) was added to each well at ambient temperature.
The resulting chemiluminescence was read with a Luminomitor within 10 minutes to minimize changes in signal intensity. After reading the chemiluminescence, the cells were washed 1× with wash buffer and 1× with PBS by plate washer. The plate was tapped onto paper towels to remove excess liquid from wells and air-dried at ambient temperature for 5 minutes.
Crystal Violet working solution (60 μL) was added to each well and the cells were incubated at ambient temperature for 30 min. The crystal violet solution was removed, and the wells were rinsed with PBS, then washed 3× with PBS (200 μL) for 5 minutes each.
5% SDS solution (70 μL) was added to each well and the cells were incubated on a shaker for 30 min at ambient temperature. […]

Some results are limits rather than exact numbers.

In the case of `COc1cc2nc(Nc3cccc(O)c3)nc(NC3C4C=CC(C4)C3C(N)=O)c2cc1OC` (racemic) [Compound 101, Racemic-(2-exo,3-exo)-N4-(3-aminocarbonylbicyclo[2.2. 1]hept-5-en-2-yl)-6,7-dimethoxy-N2-(3-hydroxy)phenyl-2,4-quinazoline-diamine], in test [1], the IC50 was less than 5 µM.

In the case of `NC(=O)C1C2C=CC(C2)C1Nc1nc(Nc2cccc(O)c2)nc2ccccc12` (racemic) [Compound 102, Racemic-(2-exo,3-exo)-N4-(3-aminocarbonylbicyclo[2.2. 1]hept-5-en-2-yl)-N2-(3-hydroxy)phenyl-2,4-quinazoline-diamine], the IC50 in test [1] was less than 5 µM.

Consider `NC(=O)c1cccc(Nc2nc(NC3C4C=CC(C4)C3C(N)=O)c3nc[nH]c3n2)c1` (racemic) [Compound 122, Racemic-(2-exo,3-exo)-N6-(3-aminocarbonylbicyclo[2.2. 1]hept-5-en-2-yl)-N2-(3-aminocarbonyl)phenyl-1H-purine-2,6-diamine], for which, in test [1], the concentration for half-maximal inhibition (IC50) is less than 5 µM.

In the case of `NC(=O)C1C2C=CC(C2)C1Nc1nc(Nc2ccc3c(c2)OCO3)nc2[nH]cnc12` (racemic) [Compound 125, Racemic-(2-exo,3-exo)-N6-(3-aminocarbonylbicyclo[2.2. 1]hept-5-en-2-yl)-N2-(1,3-benzodioxol-5-yl)-1H-purine-2,6-diamine], the IC50 in test [1] is greater than 10 µM.

Regarding `Cc1cc2cc(Nc3nc(NC4C5C=CC(C5)C4C(N)=O)c4nc[nH]c4n3)ccc2[nH]1` (racemic) [Compound 150, Racemic-(2-exo,3-exo-)-N6-(3-aminocarbonylbicyclo[2.2. 1]hept-5-en-2-yl)-N2-(2-methyl-1H-indol-5-yl)-1H-purine-2,6-diamine], the IC50 in test [1] is greater than 10 µM.

Take `NC(=O)C1C2CCC(C2)C1Nc1nc(Nc2ccc(N3CCCCC3)cc2)nc2[nH]ccc12` (racemic) [Compound 168, Racemic-(2-exo,3-exo) N4-(3-aminocarbonylbicyclo[2.2. 1]hept-2-yl)-N2-[4-(piperidin-1-yl)phenyl]-1H-pyrrlol[2,3-d]pyrimidine-2,4-diamine]: the IC50 in test [1] was greater than 10 µM.

Take `NC(=O)C1C2C=CC(C2)C1Nc1nc(Nc2cccc(OCc3ccncc3)c2)nc2[nH]ccc12` (racemic) [Compound 223, Racemic-(2-exo,3-exo)-N4-(3-aminocarbonylbicyclo [2.2.1]hept-5-en-2-yl)-N2-[3-(4-pyridinylmethoxy)] phenyl-1H-pyrrolo[2,3-d]pyrimidine-2,4-diamine]: the IC50 in test [1] was greater than 10 µM; in test [2], less than 10 µM.

As for `NC(=O)C1C2C=CC(C2)C1Nc1nc(Nc2cccc(OCc3ccncc3)c2)nc2[nH]cnc12` (racemic) [Compound 224, Racemic-(2-exo,3-exo-)-N6-(3-aminocarbonylbicyclo [2.2.1]hept-5-en-2-yl)-N2-[3-(4-pyridinylinethoxy)] phenyl-1H-purine-2,6-diamine], the IC50 in test [1] is greater than 10 µM; in test [2] it was less than 10 µM.

Regarding `NC(=O)C1C2C=CC(C2)C1Nc1nc(Nc2cccc(OCc3cccnc3)c2)nc2[nH]ccc12` (racemic) [Compound 225, Racemic-(2-exo,3-exo)-N4-(3-aminocarbonylbicyclo [2.2.1]hept-5-en-2-yl)-N2-[3-(3-pyridinylmethoxy)] phenyl-1H-pyrrolo[2,3-d]pyrimidine-2,4-diamine], the 50% inhibitory concentration (IC50) in test [1] is greater than 10 µM; in test [2] it was less than 5 µM.

Turning to `NC(=O)C1C2C=CC(C2)C1Nc1nc(Nc2cccc(OCc3cccnc3)c2)nc2[nH]cnc12` (racemic) [Compound 226, Racemic-(2-exo,3-exo-)-N6-(3-aminocarbonylbicyclo [2.2.1]hept-5-en-2-yl)-N2-[3-(3-pyridinylmethoxy)phenyl]-1H-purine-2,6-diamine], the IC50 is greater than 10 µM in test [1] and less than 5 µM in test [2].

As for `CONC(=O)C1C2C=CC(C2)C1Nc1nc(Nc2cccc(OC)c2)nc2[nH]ccc12` (racemic) [Compound 233, Racemic-(2-exo,3-exo)-N4-(N-methoxy-3-aminocarbonylbicyclo [2.2.1]hept-5-en-2-yl)-N2-(3-methoxyphenyl)-1H-pyrrolo[2,3-d]pyrimidine-2,4-diamine], the IC50 in test [1] and in test [2] was less than 5 µM in each case.

`Cc1csc2c(NC3C4C=CC(C4)C3C(N)=O)nc(Nc3ccc(OCCN4CCCC4)cc3)nc12` (racemic) [Compound 240, Racemic-(2-exo,3-exo-)-7-methyl-N4-(3-aminocarbonylbicyclo [2.2.1]hept-5-en-2-yl)-N2-[4-[2-(1-pyrrolidinyl)ethoxy]phenyl]-thieno[3,2-d]pyrimidine-2,4-diamine]: the values for the IC50 in test [1] and in test [2] were less than 5 µM and less than 10 µM, respectively.

As for `NC(=O)[C@@H]1[C@H](Nc2nc(Nc3ccc4[nH]ccc4c3)nc3[nH]cnc23)[C@H]2C=C[C@@H]1C2` [Compound 147, (1R,2R,3S,4S)-N6-(3-Aminocarbonylbicyclo[2.2. 1]hept-5-en-2-yl)-N2-(1H-indol-5-yl)-1H-purine-2,6-diamine], the IC50 in test [1] is less than 5 µM.

By IC50 is commonly meant the concentration that inhibits the measured activity by half.
